Experimental data: PMC4055737, “Forward Genetic Screening Identifies a Small Molecule That Blocks Toxoplasma gondii Growth by Inhibiting Both Host- and Parasite-Encoded Kinases” (PLoS Pathogens, 2014)
Counter-ions that a name gives are not always drawn.

Target: T1, TgMAPK1 (Toxoplasma gondii, UniProt S8EUF0)
T1 construct: gene MAPKL1; full-length, endogenously C-terminally 3×HA-tagged TgMAPK1 (TGGT1_312570), immunoprecipitated from RH strain tachyzoite lysates
Test: in vitro autokinase assay (γ[…]-ATP) on anti-HA immunoprecipitated kinase, dose response
Type: biochemical

T1 sequence (S8EUF0 whole entry): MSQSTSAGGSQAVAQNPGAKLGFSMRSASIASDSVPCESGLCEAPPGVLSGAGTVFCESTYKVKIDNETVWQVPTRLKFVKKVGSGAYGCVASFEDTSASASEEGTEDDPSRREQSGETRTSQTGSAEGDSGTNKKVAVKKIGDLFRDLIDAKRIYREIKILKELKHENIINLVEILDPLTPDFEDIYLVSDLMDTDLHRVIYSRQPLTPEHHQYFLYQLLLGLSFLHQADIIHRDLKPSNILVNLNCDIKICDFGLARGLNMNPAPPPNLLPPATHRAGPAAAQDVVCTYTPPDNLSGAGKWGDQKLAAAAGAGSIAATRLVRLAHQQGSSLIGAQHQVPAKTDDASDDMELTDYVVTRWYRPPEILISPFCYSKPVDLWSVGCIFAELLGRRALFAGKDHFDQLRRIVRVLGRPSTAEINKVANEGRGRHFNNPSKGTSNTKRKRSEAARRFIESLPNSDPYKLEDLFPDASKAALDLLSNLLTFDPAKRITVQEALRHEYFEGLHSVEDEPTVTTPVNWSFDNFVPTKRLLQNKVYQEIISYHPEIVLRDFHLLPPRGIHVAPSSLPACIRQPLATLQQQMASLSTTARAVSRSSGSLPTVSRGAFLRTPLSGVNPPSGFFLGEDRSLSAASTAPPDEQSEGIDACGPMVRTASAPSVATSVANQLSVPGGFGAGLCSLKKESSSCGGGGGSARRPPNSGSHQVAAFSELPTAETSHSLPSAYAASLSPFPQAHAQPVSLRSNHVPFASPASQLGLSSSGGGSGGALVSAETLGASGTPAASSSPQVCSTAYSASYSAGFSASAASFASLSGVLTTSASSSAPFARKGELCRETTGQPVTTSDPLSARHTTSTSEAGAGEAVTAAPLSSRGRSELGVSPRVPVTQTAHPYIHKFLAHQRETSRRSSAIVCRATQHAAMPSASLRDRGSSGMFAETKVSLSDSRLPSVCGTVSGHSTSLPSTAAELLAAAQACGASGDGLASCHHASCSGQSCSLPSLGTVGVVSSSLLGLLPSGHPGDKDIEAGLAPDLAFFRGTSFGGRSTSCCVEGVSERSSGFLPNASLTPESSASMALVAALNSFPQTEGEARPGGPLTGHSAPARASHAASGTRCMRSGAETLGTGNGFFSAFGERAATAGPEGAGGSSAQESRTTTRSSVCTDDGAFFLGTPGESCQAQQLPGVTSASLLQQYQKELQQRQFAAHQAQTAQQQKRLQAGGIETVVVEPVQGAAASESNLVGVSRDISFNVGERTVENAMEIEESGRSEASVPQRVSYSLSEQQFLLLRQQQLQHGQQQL

Cc1cccc(-c2[nH]c(C(C)(C)C)nc2-c2ccc3c(c2)OCO3)n1 [SB505124, 2-(5-benzo[1,3]dioxol-5-yl-2-tert-butyl-3H-imidazol-4-yl)-6-methylpyridine hydrochloride]
IC50: 125 nM
